Earlier results as cited in the CATMoS acute toxicity set (Mansouri et al. 2021).
“And” between values parts separate entries of the source, which are not always exact repeats. Equal entries are not always repeated.

Test: rat acute oral toxicity
Conditions: in vivo

SMILES	LD50
CN(SC(Cl)(Cl)Cl)C(=O)Oc1cccc2c1OC(C)(C)C2	125 mg/kg
CCOc1ccc(N(C)C(=O)C(C(C)O)N(C)C)cc1 (stereo not given)	1350 mg/kg
CCOP(=S)(OCC)Oc1cc([N+](=O)[O-])c(Cl)cc1Cl	100 mg/kg
CC(=Nc1c(I)cc(I)c(C(=O)NCC(C)C(=O)O)c1I)N1CCOCC1 (stereo not given)	15000 mg/kg and 7000 mg/kg
N#CCC(=O)c1ccc(N)cc1	2260 mg/kg
OC(CCN1CCCCC1)(c1ccccc1)C1CC2C=CC1C2 (stereo not given)	750 mg/kg
Cc1cc(Cl)ccc1N=CN(C)C	160 mg/kg
O=S(=O)(F)C1CCC(S(=O)(=O)F)C1 (stereo not given)	7.9 mg/kg
O=c1c2ccccc2nc2n1OCC2	395 mg/kg
Cc1ccc(C)[nH]1	59 mg/kg
S=C1NCCNC(=S)S1	240 mg/kg
CCOP(=S)(OCC)SC(CCl)N1C(=O)c2ccccc2C1=O (stereo not given)	5 mg/kg
COC(=O)/C(C)=C/OP(=S)(OC)OC	678 mg/kg
NCC(O)c1ccc(O)cc1 (stereo not given)	1240 mg/kg and 1090 mg/kg
Cc1nc(C)c(C(=O)Nc2ccccc2)s1	3930 mg/kg
C=CCl	500 mg/kg
O=P(CCn1c(Cc2ccccc2)nc2ccccc21)(OCCCl)OCCCl	6200 mg/kg
CC[N+]1(CCOC(=O)C(O)(c2ccccc2)c2ccccc2)CCCCC1	4600 mg/kg
CC(C)N1C=CC(=C2C(=O)c3ccccc3C2=O)C=C1	1450 mg/kg
CC(=O)CCC(C)=O	2080 mg/kg
CCC(C)c1cc([N+](=O)[O-])cc([N+](=O)[O-])c1OC(=O)OC(C)C (stereo not given)	59 mg/kg
Cc1cc(C(=O)NNCc2ccccc2)no1	280 mg/kg
CCCCCC(C)O (stereo not given)	2580 mg/kg
NC(=O)C1c2ccccc2C=Cc2ccccc21	1800 mg/kg
C=CC(=O)NC(C)(C)CS(=O)(=O)O	16000 mg/kg

SMILES	LD50
CCOP(=S)(Oc1ccc([N+](=O)[O-])cc1)Oc1ccc([N+](=O)[O-])cc1	66.9 mg/kg
Cc1cnc(C)c(C)n1	806 mg/kg
CC(C)(C)C(O)/C(=C\c1ccc(Cl)cc1Cl)n1cncn1 (stereo not given)	474 mg/kg
OCCNCCOc1ccc(C(=C(c2ccccc2)C(F)(F)F)c2ccccc2)cc1	1400 mg/kg
CCCCS(=O)(=O)NC1CCCCC1	2820 mg/kg
BrC1(Br)C2CCC1CC2	210 mg/kg
ClCC(Cl)=C(Cl)C(Cl)Cl	472 mg/kg
O=C(O)COc1nn(Cc2ccccc2)c2ccccc12	1200 mg/kg
COc1cc(C=CC(=S)N2CCOCC2)cc(OC)c1OC	1350 mg/kg
CCc1ccc2nc(C(F)(F)F)[nH]c2c1	28 mg/kg
BrCBr	108 mg/kg
O=CNC(Nc1ccc(Cl)c(Cl)c1)C(Cl)(Cl)Cl (stereo not given)	2500 mg/kg
O=C(CCBr)N1CCN(C(=O)CCBr)CC1	220 mg/kg
O=C(CCN1CCN2c3ccccc3CCC2C1)Cc1ccc(F)cc1 (stereo not given)	800 mg/kg
NC(=O)C1(N2CCCCC2)CCN(CCCN2c3ccccc3CCc3ccccc32)CC1	1020 mg/kg
OC1(c2cccc(Cl)c2)c2ccccc2C2=NCCN21 (stereo not given)	200 mg/kg
CN(CCN(C)N=O)N=O	125 mg/kg
COc1ccc(N)c(S(=O)(=O)O)c1	10000 mg/kg
c1ccc(Nc2ccc(Nc3ccccc3)cc2)cc1	2370 mg/kg
CN=C(O)O/N=C1/SCOC1(C)C	2 mg/kg
CCCCNC(=O)NS(=O)(=O)c1ccc(C)cc1	2490 mg/kg
CC(C)(CO)C(O)C#N (stereo not given)	310 mg/kg
CC=Cc1ccccc1	3600 mg/kg
FC(F)(F)c1nc2c(Cl)cccc2[nH]1	19.2 mg/kg
NC1CCN(c2cccc(Cl)n2)CC1	190 mg/kg

SMILES	LD50
CCOCCOCC	4390 mg/kg
CCC1(c2ccccc2)CCC(=O)NC1=O (stereo not given)	600 mg/kg
CC(Cl)(Cl)C(=O)OCCOc1cc(Cl)c(Cl)cc1Cl	1000 mg/kg
CCN1CN1CC (stereo not given)	4000 mg/kg
CCCc1c(OCc2cccn3c(=O)c(CCC(=O)O)cnc23)ccc(C(C)=O)c1O	4000 mg/kg
CN(C)CCCN	1870 mg/kg
C=COC	4900 mg/kg
Cc1c(Cl)c(=O)oc2cc(OP(=O)(OCCCl)OCCCl)ccc12	900 mg/kg
ClC1=C(Cl)C2(Cl)C3CC(Cl)(Cl)CC3C1(Cl)C2(Cl)Cl (stereo not given)	500 mg/kg
Clc1ccc(Sc2cc(Cl)c(Cl)cc2Cl)cc1	3960 mg/kg
O=[N+]([O-])c1cc(Cl)cc2[nH]c(C(F)(F)F)nc12	2.78 mg/kg
OCC(F)(F)C(F)(F)C(F)(F)CO	1780 mg/kg
COc1ccc2c(=O)c(C)c(-c3ccccc3)oc2c1CN(C)C	40 mg/kg and 14 mg/kg
CCC(C)OC(CBr)c1ccccc1 (stereo not given)	250 mg/kg
O=C=NCC1CCC(CN=C=O)CC1 (stereo not given)	1600 mg/kg
c1cc2c(cc1CCC(CCc1ccc3c(c1)OCO3)N1CCCC1)OCO2	565 mg/kg
CCN(CC)C(=O)Nc1ccc(OCC(O)CNC(C)(C)C)c(C(C)=O)c1 (stereo not given)	2160 mg/kg
Cc1c(Cl)c([N+](=O)[O-])c2nc(C(F)(F)F)[nH]c2c1[N+](=O)[O-]	105 mg/kg
COP(=S)(OC)SC1CSC=CO1 (stereo not given)	100 mg/kg
CC[C@@]1(O)C[N@@]2CC[C@H]1C[C@@H]2[C@@H](O)c1ccnc2ccc(OC)cc12	600 mg/kg
O=C(O)C1=Cc2sc(Cn3ccnc3)cc2CC1	1880 mg/kg
COc1ccc2c(c1)c(CC(=O)OCC(C(=O)O)c1ccccc1)c(C)n2C(=O)c1ccc(Cl)cc1 (stereo not given)	140 mg/kg
COc1ccccc1C1CCN(CCCc2ccc3c(c2)CCC(=O)N3)CC1	500 mg/kg
CCOP(=O)(OCC)N(SN(C)C(=O)ON=C(C)SC)C(C)C	100 mg/kg
CC(=O)Oc1cccc(Oc2ccc(C(F)(F)F)cc2Cl)c1	2500 mg/kg

SMILES	LD50
CCOP(=O)(N=C1SCCS1)OCC	8.9 mg/kg
CCOC(=O)NS(=O)(=O)c1ccc(Cl)cc1	380 mg/kg
c1ccc2[nH]c(-c3cscn3)nc2c1	3600 mg/kg and 3100 mg/kg
C=C(O)C(=O)O	10000 mg/kg
C=C(Cl)C(Cl)=C(Cl)Cl	421 mg/kg
Oc1nc(O)nc(O)n1	7700 mg/kg
CCCCC(CC)COC(C[n+]1ccccc1)c1ccc(C2CCCCC2)cc1 (stereo not given)	250 mg/kg
CC(=O)C1OC1(C)C (stereo not given)	1610 mg/kg
CCP(c1ccccc1)c1ccccc1	500 mg/kg
COC(=O)c1ccccc1N=NN(C)C	13 mg/kg
O=C1c2ccccc2-c2ccc3c4c(ccc1c24)-c1c(Br)ccc(Br)c1C3=O	3570 mg/kg
C=CCSC(C)C1(CC=C)C(=O)N=C(O)NC1=O (stereo not given)	346 mg/kg
CC[P+](c1ccccc1)(c1ccccc1)c1ccccc1	200 mg/kg and 79 mg/kg
C=CC(=O)OCCCCCCC	4500 mg/kg
C[C@H](Oc1ccc(Oc2nc3ccc(Cl)cc3o2)cc1)C(=O)O	2090 mg/kg
CNCC(O)c1cccc(NS(C)(=O)=O)c1 (stereo not given)	13 mg/kg
C#CC(=O)C=CC	71 mg/kg
COc1cc(O)c(C(=O)c2ccccc2)cc1S(=O)(=O)O	3530 mg/kg
N#CC(F)(F)C(F)(F)C(F)(F)C(F)(F)C#N	2920 mg/kg
C=C(C)CNc1ccc(C(C)C(=O)O)cc1 (stereo not given)	550 mg/kg
Cl/C=C/C[N+]12CN3CN(CN(C3)C1)C2	500 mg/kg
O=C(Cl)c1ccc([N+](=O)[O-])cc1	5600 mg/kg
NC(=O)c1ccc2nc(C(F)(F)F)[nH]c2c1	31.6 mg/kg
NCC1CCC(CN)CC1 (stereo not given)	530 mg/kg
CN(C)CCC1Oc2ccccc2Nc2ccccc21 (stereo not given)	1400 mg/kg

SMILES	LD50
O=S(=O)(Cl)c1ccccc1	1960 mg/kg
CCc1cc2c(s1)-n1c(C)nnc1CN=C2c1ccccc1Cl	3510 mg/kg
Cc1cc(C(=O)c2ccccc2)ccc1N=Cc1cccc(OCCC(C)C)c1	2100 mg/kg
Nc1ccc2c(c1)C1CCCCC1N2 (stereo not given)	275 mg/kg
CCN(CC)C(=O)[C@]1(c2ccccc2)C[C@@H]1CN	213 mg/kg
CN(C)CCCC(CCc1ccc2c(c1)OCO2)CCc1ccc2c(c1)OCO2	1230 mg/kg
C/C(=N\O)C(=O)c1ccccc1	4240 mg/kg
CCCCc1c(OC(=O)c2ccccc2)n(-c2ccccc2)n(-c2ccccc2)c1=O	2200 mg/kg
FC(Cl)(Cl)c1ccccc1	450 mg/kg
CCCCCCCCCN(CCCCCCCCC)CCCCCCCCC	5600 mg/kg
O=C1NC2CCCCN2C12CCN(CCCN1c3ccccc3CCc3ccc(Cl)cc31)CC2 (stereo not given)	4910 mg/kg
CC(=O)N(OCCN(C)C)C12CC3CC(CC(C3)C1)C2	630 mg/kg
CCOP(=O)(OCC)SC(P(=O)(OCC)OCC)(P(=O)(OCC)OCC)P(=O)(OCC)OCC	28 mg/kg
O=C(c1ccccc1)c1ccc(O)cc1O	8600 mg/kg
Nc1c([N+](=O)[O-])cc(Cl)cc1[N+](=O)[O-]	400 mg/kg
C=C1C[C@@H]1C[C@H](N)C(=O)O	98 mg/kg
O=C1CCCCCC=CCCCCCCCCO1	339 mg/kg
Cn1c2c(c3ccc(N)cc31)CCCC2	705 mg/kg
O=C(O)c1ccc([N+](=O)[O-])cc1	1960 mg/kg
CCCCCCCCCCCCSC#N	1250 mg/kg
CN1CC(CCN2CC=C(c3ccccc3)CC2)OC1=O (stereo not given)	340 mg/kg
COCCOC(C)OCCOC	3260 mg/kg
CC[C@H]1OC(=O)[C@H](C)[C@@H](O[C@H]2C[C@@](C)(OC)[C@@H](O)[C@H](C)O2)[C@H](C)[C@@H](O[C@@H]2O[C@H](C)C[C@H](N(C)C)[C@H]2O)[C@](C)(OC)C[C@@H](C)C(=O)[C@H](C)[C@@H](O)[C@]1(C)O	1270 mg/kg
COc1ccc(CCl)cc1OC	4700 mg/kg
CC(CN(C)C)CN1c2ccccc2OCOc2ccc(Cl)cc21 (stereo not given)	600 mg/kg

SMILES	LD50
CCC1OCCSC1=NOC(=O)NC (stereo not given)	19 mg/kg
O=C1C(Cl)C(CCl)CN1c1cccc(C(F)(F)F)c1 (stereo not given)	3650 mg/kg
CCCN(N=O)C(N)=O	480 mg/kg
COC1CCC=CO1 (stereo not given)	1410 mg/kg
Cc1cccn2c(=O)c(-c3nnn[nH]3)cnc12	687 mg/kg
O=C(OC(=O)C(Cl)Cl)C(Cl)Cl	2820 mg/kg
N#CC(=O)c1cccc(Cl)c1Cl	50 mg/kg
CCOC(C1=NCC(CC)(CC)CN1)c1cccc(Cl)c1 (stereo not given)	110 mg/kg
c1ccc2c(c1)Sc1ccccc1N2CC1CN2CCC1CC2 (stereo not given)	245 mg/kg
CN1C(=O)CN=C(c2ccccc2F)c2cc(Cl)ccc21	1740 mg/kg
CCCCCCCCCCCCCCCCCC1=NC(C)CC(C)(C)N1 (stereo not given)	493 mg/kg
O=NN1CN(N=O)CN(N=O)C1	160 mg/kg
O=CC(Br)=Cc1ccccc1	1450 mg/kg
O=C(O)C(F)(F)C(F)(F)C(F)(F)C(F)(F)C(F)(F)C(F)(F)C(F)(F)F	430 mg/kg
CCS(=O)(=O)CCSP(=O)(OC)OC	32.4 mg/kg
O=C(O)C(F)(F)C(F)F	8570 mg/kg
Cc1c(Br)cc2[nH]c(C(F)(F)F)nc2c1[N+](=O)[O-]	83 mg/kg
Cc1ccc(SN2C(=O)c3ccccc3C2=O)cc1	5060 mg/kg
CN(C)CCCN1c2ccccc2C(C)(C)c2ccccc21	1670 mg/kg and 1850 mg/kg
CCOP(=S)(OCC)Oc1ccc2c(C)cc(=O)oc2c1	14.7 mg/kg
